Values quoted from earlier work in US6201025A, “N-aralkylaminotetralins as ligands for the neuropeptide Y Y5 receptor” (Ortho-McNeil Pharmaceutical, Inc., priority 1999, dated 2001).

Experiments:
feeding in animals = conditions: cited from earlier work
classic Y1 receptor = conditions: cited from earlier work
[1] = tested on: forskolin-stimulated cAMP production/levels in a neuroblastoma cell line; conditions: cited from earlier work
live animals = conditions: icv or into the amygdala; cited from earlier work
[2] = tested on: animal models of learning; conditions: cited from earlier work
luteinizing hormone (LH) = conditions: rodents; cited from earlier work
food intake in rats = conditions: satiated rats; as little as one-billionth of a gram; cited from earlier work
rodents = conditions: intracerebroventricularly; cited from earlier work

Substance	feeding response (feeding in animals)	binding at the classic Y1 receptor (classic Y1 receptor)	effect on forskolin-stimulated cAMP production/levels [1]	effect in animal models of anxiety (live animals)	memory and performance scores [2]	release of luteinizing hormone (LH) (luteinizing hormone (LH))	effect on food intake, injected directly into the CNS (food intake in rats)	anxiogenic effect (rodents)
NPY2-36: NPY fragment	potent inducer of feeding	poor binding						
neuropeptide Y [NPY]			inhibits forskolin-stimulated cAMP production/levels	produces anxiolytic effects	improves memory and performance scores	mediates endocrine functions such as the release of luteinizing hormone (LH)	causes satiated rats to overeat	not anxiogenic
